Source: ChEMBL document CHEMBL5244211, “Current anti-diabetic agents and their molecular targets: A review” (Eur J Med Chem, 2018)

Columns and labels:
[1] = biological target: T1, Fructose-1,6-bisphosphatase 1 (Homo sapiens, UniProt P09467); experiment: Inhibition of FBPase (unknown origin)
T1 sequence (P09467 whole entry): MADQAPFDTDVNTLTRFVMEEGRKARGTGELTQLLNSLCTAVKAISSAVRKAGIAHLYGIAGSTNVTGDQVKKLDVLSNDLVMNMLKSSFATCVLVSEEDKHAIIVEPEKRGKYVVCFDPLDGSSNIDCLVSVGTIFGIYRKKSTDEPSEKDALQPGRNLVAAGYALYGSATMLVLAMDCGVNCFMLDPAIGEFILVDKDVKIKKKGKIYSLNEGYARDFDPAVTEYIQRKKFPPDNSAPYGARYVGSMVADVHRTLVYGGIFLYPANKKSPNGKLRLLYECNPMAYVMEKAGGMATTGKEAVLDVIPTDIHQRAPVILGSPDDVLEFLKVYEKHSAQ

[2] = biological target: Free fatty acid receptor 1 (Homo sapiens, UniProt O14842); experiment: Agonist activity at human GPR40 expressed in HEK293 cells incubated for 18 to 24 hrs by HTRF assay; format: cell-based
Free fatty acid receptor 1, sequence (O14842 whole entry): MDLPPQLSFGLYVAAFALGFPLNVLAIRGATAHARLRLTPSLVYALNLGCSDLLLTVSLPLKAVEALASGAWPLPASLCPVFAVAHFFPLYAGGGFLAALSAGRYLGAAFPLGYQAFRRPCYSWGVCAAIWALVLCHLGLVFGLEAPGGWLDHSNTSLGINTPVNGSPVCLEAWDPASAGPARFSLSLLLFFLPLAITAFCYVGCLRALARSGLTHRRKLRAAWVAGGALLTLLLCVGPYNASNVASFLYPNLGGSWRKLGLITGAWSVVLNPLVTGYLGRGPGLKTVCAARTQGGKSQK

[3] = Inhibition of bovine kidney ALR1 in presence of NADPH by UV spectrophotometric analysis; format: tissue-based, Bos taurus
[4] = Inhibition of Calf ALR2 in presence of NADPH by UV spectrophotometric analysis; set-up: species or system Bos taurus
[5] = biological target: T2, Fructose-1,6-bisphosphatase 1 (Rattus norvegicus, UniProt P19112); experiment: Inhibition of FBPase in rat Primary hepatocyte assessed as reduction in glucose production; format: cell-based
T2 sequence (P19112 whole entry): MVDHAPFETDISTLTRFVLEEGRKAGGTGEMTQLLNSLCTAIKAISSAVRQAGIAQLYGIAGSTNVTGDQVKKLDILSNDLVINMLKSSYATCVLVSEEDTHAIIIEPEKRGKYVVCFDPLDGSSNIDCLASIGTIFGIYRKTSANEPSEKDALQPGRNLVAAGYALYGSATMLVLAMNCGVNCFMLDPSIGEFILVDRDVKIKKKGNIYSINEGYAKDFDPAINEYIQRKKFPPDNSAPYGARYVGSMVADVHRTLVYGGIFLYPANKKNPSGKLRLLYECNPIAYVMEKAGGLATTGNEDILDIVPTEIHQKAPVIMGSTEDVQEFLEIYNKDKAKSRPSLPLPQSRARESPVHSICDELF

[6] = biological target: T3, Fructose-1,6-bisphosphatase 1 (Rattus norvegicus) (UniProt P19112); experiment: Inhibition of FBPase in rat Primary hepatocyte assessed as reduction in glucose production at 160 uM; format: cell-based
T3 sequence (whole entry): T2 sequence (P19112 whole entry)

[7] = Inhibition of calf lens ALR2 using glyceraldehyde as substrate incubated for 5 mins in presence of NADPH by UV-spectrophotometric analysis; format: tissue-based, Bos taurus
Alpha-glucosidase = Alpha-glucosidase (Saccharomyces cerevisiae S288c, UniProt P53341+P38158+P07265); experiment: Inhibition of Saccharomyces cerevisiae alpha-glucosidase using p-nitrophenol-alpha-D-glucopyranoside as substrate incubated for 15 mins by spectrophotometric method; format: protein assay
[8] = biological target: T4, Alpha-glucosidase (Saccharomyces cerevisiae S288c) (UniProt P53341+P38158+P07265); experiment: Inhibition of Saccharomyces cerevisiae alpha-glucosidase assessed as dissociation rate constant (k1) using p-nitrophenol-alpha-D-glucopyranoside as substrate by Lineweaver-Burk plot analysis; format: protein assay
[9] = biological target: T4, Alpha-glucosidase (Saccharomyces cerevisiae S288c); experiment: Inhibition of Saccharomyces cerevisiae alpha-glucosidase assessed as dissociation rate constant (k2) using p-nitrophenol-alpha-D-glucopyranoside as substrate by Lineweaver-Burk plot analysis; format: protein assay
Dipeptidyl peptidase 4 [10] = biological target: T5, Dipeptidyl peptidase 4 (Homo sapiens, UniProt P27487); experiment: Inhibition of DPP4 (unknown origin)
T5 sequence (P27487 whole entry): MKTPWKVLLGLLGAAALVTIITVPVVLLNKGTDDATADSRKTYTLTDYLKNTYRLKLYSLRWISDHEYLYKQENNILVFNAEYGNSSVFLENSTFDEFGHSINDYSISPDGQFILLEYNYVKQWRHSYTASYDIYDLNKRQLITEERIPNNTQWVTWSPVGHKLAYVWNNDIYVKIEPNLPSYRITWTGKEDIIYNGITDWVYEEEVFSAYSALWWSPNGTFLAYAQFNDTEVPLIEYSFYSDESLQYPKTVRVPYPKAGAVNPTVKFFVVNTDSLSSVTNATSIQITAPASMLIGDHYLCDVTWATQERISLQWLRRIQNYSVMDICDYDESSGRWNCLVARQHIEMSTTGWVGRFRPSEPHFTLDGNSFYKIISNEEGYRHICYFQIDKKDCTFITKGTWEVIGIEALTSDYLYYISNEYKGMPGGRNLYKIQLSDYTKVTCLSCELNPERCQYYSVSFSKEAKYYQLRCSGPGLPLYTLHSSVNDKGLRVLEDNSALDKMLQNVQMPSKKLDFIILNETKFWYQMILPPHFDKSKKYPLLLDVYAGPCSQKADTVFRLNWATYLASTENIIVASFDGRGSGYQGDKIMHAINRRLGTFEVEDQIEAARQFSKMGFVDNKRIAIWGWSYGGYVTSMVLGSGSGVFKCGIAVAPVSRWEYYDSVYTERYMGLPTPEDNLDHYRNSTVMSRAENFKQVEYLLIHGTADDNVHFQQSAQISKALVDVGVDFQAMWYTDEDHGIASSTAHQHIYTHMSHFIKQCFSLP

[11] = biological target: T6, Tyrosine-protein phosphatase non-receptor type 1 (Homo sapiens, UniProt P18031); experiment: Inhibition of PTP1B (unknown origin)
T6 sequence (P18031 whole entry): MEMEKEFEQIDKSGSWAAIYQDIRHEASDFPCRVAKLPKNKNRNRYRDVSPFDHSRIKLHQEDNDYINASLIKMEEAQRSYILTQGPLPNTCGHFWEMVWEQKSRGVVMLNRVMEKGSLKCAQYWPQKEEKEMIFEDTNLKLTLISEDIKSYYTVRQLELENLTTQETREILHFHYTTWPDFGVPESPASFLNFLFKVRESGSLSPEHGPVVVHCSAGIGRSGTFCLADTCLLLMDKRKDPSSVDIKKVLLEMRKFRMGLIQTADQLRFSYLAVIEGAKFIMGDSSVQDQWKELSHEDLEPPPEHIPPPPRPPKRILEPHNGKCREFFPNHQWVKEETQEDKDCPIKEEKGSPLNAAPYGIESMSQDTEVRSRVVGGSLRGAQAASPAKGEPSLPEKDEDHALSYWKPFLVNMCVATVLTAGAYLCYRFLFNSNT

[12] = biological target: T7, Free fatty acid receptor 4 (Homo sapiens, UniProt Q5NUL3); experiment: Agonist activity at FFA4 (unknown origin) expressed in CHO-K1 cells by BRET assay; format: cell-based
T7 sequence (Q5NUL3 whole entry): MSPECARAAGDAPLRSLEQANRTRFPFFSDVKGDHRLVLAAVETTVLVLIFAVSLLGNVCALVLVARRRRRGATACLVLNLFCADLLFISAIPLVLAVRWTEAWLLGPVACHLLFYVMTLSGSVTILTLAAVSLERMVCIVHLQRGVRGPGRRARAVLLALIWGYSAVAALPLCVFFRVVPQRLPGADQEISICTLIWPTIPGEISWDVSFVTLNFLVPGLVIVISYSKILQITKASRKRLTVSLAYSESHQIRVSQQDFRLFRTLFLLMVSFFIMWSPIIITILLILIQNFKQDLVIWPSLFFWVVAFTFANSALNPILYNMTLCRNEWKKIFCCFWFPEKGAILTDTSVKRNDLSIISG

[13] = biological target: T8, Glucose-dependent insulinotropic receptor (Homo sapiens, UniProt Q8TDV5); experiment: Agonist activity at human GPR119 expressed in HEK293S cells assessed as increase in intracellular cAMP level incubated for 45 mins by HTRF analysis; format: cell-based
T8 sequence (Q8TDV5 whole entry): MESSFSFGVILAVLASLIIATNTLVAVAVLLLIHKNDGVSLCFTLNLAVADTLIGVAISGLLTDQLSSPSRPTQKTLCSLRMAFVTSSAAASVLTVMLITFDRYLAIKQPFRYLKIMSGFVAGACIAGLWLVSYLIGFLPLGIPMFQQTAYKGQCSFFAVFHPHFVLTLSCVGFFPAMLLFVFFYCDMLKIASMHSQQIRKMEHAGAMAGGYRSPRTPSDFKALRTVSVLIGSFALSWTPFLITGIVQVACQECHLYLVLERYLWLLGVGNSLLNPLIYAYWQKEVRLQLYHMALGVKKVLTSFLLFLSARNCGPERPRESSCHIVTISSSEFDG

Dipeptidyl peptidase 4 [14] = biological target: T5, Dipeptidyl peptidase 4; experiment: Inhibition of human recombinant DPP4 using H-Gly-Pro-AMC as substrate incubated for 10 mins by microplate reader analysis

With `Cc1ccc(-c2nnc(-c3cccc(NC(=O)CCCCCCO)c3)o2)cc1` the IC50 [1] was 1320 nM.
`COc1cc(N2CCC(Oc3ccc(N4N=C(C(F)(F)F)[C@@H](C)C4CC(=O)O)cc3)[C@H](N)C2)c(Cl)cn1` (stereo not given in full) showed an EC50 [2] of 71 nM.
`CCCCNCn1nc(-c2cc3ccccc3oc2=O)oc1=S` showed an IC50 [3] of 3360 nM and an IC50 [4] of 310 nM.
`Cc1ccc(-c2nnc(-c3cccc(NC(=O)CCCCc4nnn[nH]4)c3)o2)cc1` gave an IC50 [5] of 167000 nM and an inhibition [6] of 42%.
For `Cc1ccc(-c2nnc(-c3cccc(NC(=O)CCCCO)c3)o2)cc1`, the IC50 [1] was 5610 nM.
For `Cc1ccc(N2C(=O)/C(=C/c3cn(-c4ccccc4)nc3-c3ccc([N+](=O)[O-])cc3)SC2=S)cc1`, the IC50 [7] was 2340 nM.
Work on `Cc1cc2c(c(=O)[nH]1)C(=O)O/C2=C\c1cc(Br)cs1` yielded an IC50 (Alpha-glucosidase) of 240 nM, a Kdiss [8] of 0.22 µM and a Kdiss [9] of 0.25 µM.
With `CC#CCn1c(N2CCC[C@@H](N)C2)cc(=O)n(Cc2nc(C)c3cc(C)ccc3n2)c1=O` the IC50 (Dipeptidyl peptidase 4 [10]) was 5.78 nM.
For `Oc1cc(Cc2cc(O)c(Br)c(Br)c2Br)c(Br)c(Br)c1O`, the IC50 [11] was 2400 nM.
Work on `Nc1cc(Cl)ccc1/C(=N/Nc1nc(-c2cc3ccccc3oc2=O)cs1)c1ccccc1` yielded an IC50 [3] of 459 nM and an IC50 [4] of 110 nM.
`O=C(O)CCCc1ccc(OCC2=C(c3ccc(C4CC4)cc3)CCCC2)cc1` showed an EC50 [12] of 50 nM.
Work on `CSc1ccc(COc2ccc(-c3ncc(C)c(N4CCN(c5ncc(OCC=C(C)C)cn5)CC4)n3)cc2)cc1` yielded an EC50 [13] of 24 nM.
Work on `CCCC(CCC)C(=O)O` [VALPROIC ACID] yielded an IC50 [3] of 57400 nM.
In the case of `CC#CCn1c(N2CCC[C@@H](N)C2)nc2c(C)c(=O)n(Cc3nc(C)c4c(Cl)cccc4n3)c(=O)n21`, the IC50 (Dipeptidyl peptidase 4 [10]) is reported as 0.7 nM.
Work on `NNc1nc(NN)nc(N2C(=O)CSC2=O)n1` yielded an IC50 (Dipeptidyl peptidase 4 [14]) of 6250 nM.
